Paper PMC5218480 (PLoS ONE, 2017)

Test system: MV-4-11 cells
Test: Gene expression microarray analysis (Affymetrix PrimeView) and GSEA
Assay type: cell-based, human
Parameters: RFU PODN (11730768_x_at) / Fold change /veh PODN (11730768_x_at) / RFU LINC00158 (11744669_a_at) / Fold change /veh LINC00158 (11744669_a_at) / RFU DUSP10 (11751237_a_at) / Fold change /veh DUSP10 (11751237_a_at) / RFU ID3 (11757404_x_at) / Fold change /veh ID3 (11757404_x_at) / RFU PLEKHG5 (11737974_s_at) / Fold change /veh PLEKHG5 (11737974_s_at) / RFU LRRC4B (11730491_at) / Fold change /veh LRRC4B (11730491_at) / RFU GIMAP4 (11747438_a_at) / Fold change /veh GIMAP4 (11747438_a_at) / RFU KRT8 (11758183_x_at) / Fold change /veh KRT8 (11758183_x_at) / RFU CNN1 (11734310_a_at) / Fold change /veh CNN1 (11734310_a_at) / RFU VPS37D (11726825_at) / Fold change /veh VPS37D (11726825_at) / RFU C10orf10 (11716522_x_at) / Fold change /veh C10orf10 (11716522_x_at) / RFU KIR2DL2 /// KIR2DL4 /// KIR2DL5A /// KIR2DL5B /// KIR2DS1 /// KIR2DS2 /// KIR2DS3 /// KIR2DS4 /// KIR3DL3 /// KIR3DL3 /// KIR3DS1 (11738374_at) / Fold change /veh KIR2DL2 /// KIR2DL4 /// KIR2DL5A /// KIR2DL5B /// KIR2DS1 /// KIR2DS2 /// KIR2DS3 /// KIR2DS4 /// KIR3DL3 /// KIR3DL3 /// KIR3DS1 (11738374_at) / RFU C1QL1 (11718748_at) / Fold change /veh C1QL1 (11718748_at) / RFU TMPRSS4 (11747572_a_at) / Fold change /veh TMPRSS4 (11747572_a_at) / RFU HAMP (11756126_x_at) / Fold change /veh HAMP (11756126_x_at) / RFU RNFT2 (11725882_a_at) / Fold change /veh RNFT2 (11725882_a_at) / RFU NR4A2 (11747474_a_at) / Fold change /veh NR4A2 (11747474_a_at) / RFU ABCC12 (11746883_a_at) / Fold change /veh ABCC12 (11746883_a_at) / RFU TMEM136 (11760407_x_at) / Fold change /veh TMEM136 (11760407_x_at) / RFU CLDN22 /// WWC2 (11732394_at) / Fold change /veh CLDN22 /// WWC2 (11732394_at) / RFU HLA-DPB1 (11760878_x_at) / Fold change /veh HLA-DPB1 (11760878_x_at) / RFU SPINT1 (11716480_a_at) / Fold change /veh SPINT1 (11716480_a_at) / RFU GAP43 (11754022_s_at) / Fold change /veh GAP43 (11754022_s_at) / RFU A4GNT (11735810_at) / Fold change /veh A4GNT (11735810_at) / RFU PRB3 (11715151_x_at) / Fold change /veh PRB3 (11715151_x_at) / RFU TUBB4B (11761932_at) / Fold change /veh TUBB4B (11761932_at) / RFU CAPN14 (11732068_a_at) / Fold change /veh CAPN14 (11732068_a_at) / RFU TMCC2 (11721928_a_at) / Fold change /veh TMCC2 (11721928_a_at) / RFU IRGQ (11745062_a_at) / Fold change /veh IRGQ (11745062_a_at) / RFU FAM174B (11720279_a_at) / Fold change /veh FAM174B (11720279_a_at) / RFU TMPRSS4 (11748680_a_at) / Fold change /veh TMPRSS4 (11748680_a_at) / RFU FAM212B (11763350_a_at) / Fold change /veh FAM212B (11763350_a_at) / RFU PLEKHG5 (11743358_a_at) / Fold change /veh PLEKHG5 (11743358_a_at) / RFU ZSCAN30 (11745921_a_at) / Fold change /veh ZSCAN30 (11745921_a_at) / RFU CMKLR1 (11741424_a_at) / Fold change /veh CMKLR1 (11741424_a_at) / RFU LOC101060620 /// MAPK8IP1 (11723275_at) / Fold change /veh LOC101060620 /// MAPK8IP1 (11723275_at) / RFU SPTSSB (11747773_x_at) / Fold change /veh SPTSSB (11747773_x_at) / RFU PRSS12 (11739890_at) / Fold change /veh PRSS12 (11739890_at) / RFU BIN1 (11741810_x_at) / Fold change /veh BIN1 (11741810_x_at) / RFU WNT11 (11732464_a_at) / Fold change /veh WNT11 (11732464_a_at) / RFU C10orf10 (11716521_a_at) / Fold change /veh C10orf10 (11716521_a_at) / RFU C5orf56 (11738089_at) / Fold change /veh C5orf56 (11738089_at) / RFU CYB561 (11721691_x_at) / Fold change /veh CYB561 (11721691_x_at) / RFU ANKRD19P (11752326_a_at) / Fold change /veh ANKRD19P (11752326_a_at) / RFU OR2T12 /// OR2T33 /// OR2T8 (11738714_s_at) / Fold change /veh OR2T12 /// OR2T33 /// OR2T8 (11738714_s_at) / RFU VCAN (11748164_a_at) / Fold change /veh VCAN (11748164_a_at) / RFU JSRP1 (11732532_at) / Fold change /veh JSRP1 (11732532_at) / RFU KRTAP10-11 (11738290_x_at) / Fold change /veh KRTAP10-11 (11738290_x_at) / RFU MYO3A (11730013_a_at) / Fold change /veh MYO3A (11730013_a_at) / RFU EBF3 (11725865_a_at) / Fold change /veh EBF3 (11725865_a_at) / RFU CAMK2N1 (11719241_x_at) / Fold change /veh CAMK2N1 (11719241_x_at) / RFU C5orf56 (11738088_a_at) / Fold change /veh C5orf56 (11738088_a_at) / RFU OLFML3 (11715873_a_at) / Fold change /veh OLFML3 (11715873_a_at) / RFU LOC100653217 /// NTM (11731650_a_at) / Fold change /veh LOC100653217 /// NTM (11731650_a_at) / RFU MAPK11 (11762145_a_at) / Fold change /veh MAPK11 (11762145_a_at) / RFU FIZ1 (11724087_x_at) / Fold change /veh FIZ1 (11724087_x_at) / RFU OASL (11726364_x_at) / Fold change /veh OASL (11726364_x_at) / RFU SOX15 (11748057_x_at) / Fold change /veh SOX15 (11748057_x_at) / RFU CD79A (11719716_a_at) / Fold change /veh CD79A (11719716_a_at) / RFU HIST1H1D (11736915_at) / Fold change /veh HIST1H1D (11736915_at) / RFU CASKIN2 (11723855_a_at) / Fold change /veh CASKIN2 (11723855_a_at) / RFU LOC730098 (11760151_x_at) / Fold change /veh LOC730098 (11760151_x_at) / RFU OR4N2 (11742367_at) / Fold change /veh OR4N2 (11742367_at) / RFU PRRT2 (11749266_a_at) / Fold change /veh PRRT2 (11749266_a_at) / RFU SNX32 (11753110_a_at) / Fold change /veh SNX32 (11753110_a_at) / RFU CDHR5 (11726645_a_at) / Fold change /veh CDHR5 (11726645_a_at) / RFU RCAN1 (11760418_a_at) / Fold change /veh RCAN1 (11760418_a_at) / RFU FAM167A (11723789_a_at) / Fold change /veh FAM167A (11723789_a_at) / RFU FAM26E (11764081_at) / Fold change /veh FAM26E (11764081_at) / RFU ISYNA1 (11749810_s_at) / Fold change /veh ISYNA1 (11749810_s_at) / RFU ACY1 (11761880_at) / Fold change /veh ACY1 (11761880_at) / RFU 11764098_at / Fold change /veh 11764098_at / RFU SAMD14 (11745864_x_at) / Fold change /veh SAMD14 (11745864_x_at) / RFU NPB (11741838_a_at) / Fold change /veh NPB (11741838_a_at) / RFU TMPRSS6 (11731388_a_at) / Fold change /veh TMPRSS6 (11731388_a_at) / RFU KRTAP10-2 (11738614_at) / Fold change /veh KRTAP10-2 (11738614_at) / RFU ARHGAP8 /// PRR5-ARHGAP8 (11727945_x_at) / Fold change /veh ARHGAP8 /// PRR5-ARHGAP8 (11727945_x_at) / RFU KRTAP5-7 /// NADSYN1 (11734609_at) / Fold change /veh KRTAP5-7 /// NADSYN1 (11734609_at) / RFU RASL12 (11751679_a_at) / Fold change /veh RASL12 (11751679_a_at) / RFU CDKN2B (11736163_a_at) / Fold change /veh CDKN2B (11736163_a_at) / RFU PRF1 (11729649_at) / Fold change /veh PRF1 (11729649_at) / RFU, ZNF638 /// ZNF638-IT1 / Fold change vs veh, ZNF638 /// ZNF638-IT1 / RFU, PANK3 / Fold change vs veh, PANK3 / RFU, SH3YL1 / Fold change vs veh, SH3YL1 / RFU, ZEB2 / Fold change vs veh, ZEB2 / RFU, NRIP1 / Fold change vs veh, NRIP1 / RFU, PTTG1IP / Fold change vs veh, PTTG1IP / RFU, CAPN2 / Fold change vs veh, CAPN2 / RFU, MED14 / Fold change vs veh, MED14 / RFU, SNORA58 / Fold change vs veh, SNORA58 / RFU, C1orf63 / Fold change vs veh, C1orf63 / RFU, LRRFIP1 / Fold change vs veh, LRRFIP1 / RFU, NDUFAF7 / Fold change vs veh, NDUFAF7 / RFU, SLC12A2 / Fold change vs veh, SLC12A2 / RFU, IBTK / Fold change vs veh, IBTK / RFU, ESF1 / Fold change vs veh, ESF1 / Fold change vs veh, TMEM50B / RFU, TAOK1 / Fold change vs veh, TAOK1 / RFU, ACBD3 / Fold change vs veh, ACBD3 / RFU, TMA16 / Fold change vs veh, TMA16 / RFU, RWDD3 / Fold change vs veh, RWDD3 / RFU, BCAT1 / Fold change vs veh, BCAT1 / RFU, EDEM3 / Fold change vs veh, EDEM3 / RFU, TMEM33 / Fold change vs veh, TMEM33 / RFU, WDR75 / Fold change vs veh, WDR75 / RFU, AHCTF1 / Fold change vs veh, AHCTF1 / RFU, TFRC / Fold change vs veh, TFRC / RFU, ZDHHC17 / Fold change vs veh, ZDHHC17 / RFU, NOM1 / Fold change vs veh, NOM1 / RFU, ARL8B / Fold change vs veh, ARL8B / RFU, ZBTB11 / Fold change vs veh, ZBTB11 / RFU, TAMM41 / Fold change vs veh, TAMM41 / RFU, KIAA1704 /// LOC100996395 / Fold change vs veh, KIAA1704 /// LOC100996395 / RFU, ING1 / Fold change vs veh, ING1 / RFU, TRMT61B / Fold change vs veh, TRMT61B / RFU, FUBP3 / Fold change vs veh, FUBP3 / RFU, TP53 / Fold change vs veh, TP53 / RFU, TNKS2 / Fold change vs veh, TNKS2 / RFU, ZFP14 / Fold change vs veh, ZFP14 / RFU, ACTR2 / Fold change vs veh, ACTR2 / RFU, PPP3R1 / Fold change vs veh, PPP3R1 / RFU, PIK3R1 / Fold change vs veh, PIK3R1 / RFU, HNRNPA1 / Fold change vs veh, HNRNPA1 / RFU, RNF170 / Fold change vs veh, RNF170 / RFU, ZNF28 / Fold change vs veh, ZNF28 / RFU, RNGTT / Fold change vs veh, RNGTT / RFU, OGT / Fold change vs veh, OGT / RFU, BRD1 / Fold change vs veh, BRD1 / RFU, MARS / Fold change vs veh, MARS / RFU, ZNF655 / Fold change vs veh, ZNF655 / RFU, FAHD1 / Fold change vs veh, FAHD1 / RFU, BDP1 / Fold change vs veh, BDP1 / RFU, LRRCC1 / Fold change vs veh, LRRCC1 / RFU, ARID1A / Fold change vs veh, ARID1A / RFU, ZNF146 / Fold change vs veh, ZNF146 / RFU, ZNF330 / Fold change vs veh, ZNF330 / RFU, GPN3 / Fold change vs veh, GPN3 / RFU, C9orf123 / Fold change vs veh, C9orf123 / RFU, N4BP2L2 / Fold change vs veh, N4BP2L2 / RFU, ARFIP1 / Fold change vs veh, ARFIP1 / RFU, FAM179B / Fold change vs veh, FAM179B / RFU, BCL10 / Fold change vs veh, BCL10 / RFU, UHRF1BP1L / Fold change vs veh, UHRF1BP1L / RFU, BET1 / Fold change vs veh, BET1 / RFU, CNOT2 / Fold change vs veh, CNOT2 / RFU, ZNF268 / Fold change vs veh, ZNF268 / Fold change vs veh, ZNF507 / RFU, DGCR2 / Fold change vs veh, DGCR2 / RFU, WDSUB1 / Fold change vs veh, WDSUB1 / Fold change vs veh, HSP90B1 /// MIR3652 / RFU, ADSS / Fold change vs veh, ADSS / RFU, GK / Fold change vs veh, GK / RFU, ZNF148 / Fold change vs veh, ZNF148 / RFU, TAF9 / Fold change vs veh, TAF9 / RFU, SLC1A5 / Fold change vs veh, SLC1A5 / RFU, SLMO2 / Fold change vs veh, SLMO2 / RFU, ABCC4 / Fold change vs veh, ABCC4 / RFU, LOC101060439 /// RAP1B / Fold change vs veh, LOC101060439 /// RAP1B / RFU, RFX7 / Fold change vs veh, RFX7 / RFU, GTPBP10 / Fold change vs veh, GTPBP10 / RFU, CNEP1R1 / Fold change vs veh, CNEP1R1 / RFU, BIVM-ERCC5 /// ERCC5 / Fold change vs veh, BIVM-ERCC5 /// ERCC5 / RFU, ILF3 / Fold change vs veh, ILF3 / RFU 11762660_at / Fold change /veh 11762660_at / RFU VCAN (11757783_s_at) / Fold change /veh VCAN (11757783_s_at) / RFU DDX43 (11728927_at) / Fold change /veh DDX43 (11728927_at) / RFU KRT8 (11758188_x_at) / Fold change /veh KRT8 (11758188_x_at) / RFU NKD1 (11759106_at) / Fold change /veh NKD1 (11759106_at) / RFU SRD5A1 (11742802_a_at) / Fold change /veh SRD5A1 (11742802_a_at) / RFU TPSAB1 /// TPSB2 (11721975_s_at) / Fold change /veh TPSAB1 /// TPSB2 (11721975_s_at) / RFU GSTM3 (11746129_a_at) / Fold change /veh GSTM3 (11746129_a_at) / RFU IL23R (11737362_x_at) / Fold change /veh IL23R (11737362_x_at) / RFU TMEM51 (11727254_a_at) / Fold change /veh TMEM51 (11727254_a_at) / RFU PIWIL2 (11732686_x_at) / Fold change /veh PIWIL2 (11732686_x_at) / RFU ORM1 (11744905_x_at) / Fold change /veh ORM1 (11744905_x_at) / RFU CCDC152 (11743942_at) / Fold change /veh CCDC152 (11743942_at) / RFU ECM1 (11717891_a_at) / Fold change /veh ECM1 (11717891_a_at) / RFU IL23R (11748794_a_at) / Fold change /veh IL23R (11748794_a_at) / RFU TNFAIP8L3 (11732012_x_at) / Fold change /veh TNFAIP8L3 (11732012_x_at) / RFU MBOAT4 (11741988_at) / Fold change /veh MBOAT4 (11741988_at) / RFU 11764193_at / Fold change /veh 11764193_at / RFU TMEM53 (11763286_at) / Fold change /veh TMEM53 (11763286_at) / RFU MAGEB2 (11727129_at) / Fold change /veh MAGEB2 (11727129_at) / RFU TMEM200A (11744735_a_at) / Fold change /veh TMEM200A (11744735_a_at) / RFU CCDC152 (11751479_a_at) / Fold change /veh CCDC152 (11751479_a_at) / RFU FAM211A (11726209_a_at) / Fold change /veh FAM211A (11726209_a_at) / RFU RGS16 (11746705_a_at) / Fold change /veh RGS16 (11746705_a_at) / RFU VCAN (11755009_s_at) / Fold change /veh VCAN (11755009_s_at) / RFU RHOB (11743442_s_at) / Fold change /veh RHOB (11743442_s_at) / RFU RGS16 (11720943_a_at) / Fold change /veh RGS16 (11720943_a_at) / RFU RGS16 (11720944_at) / Fold change /veh RGS16 (11720944_at) / RFU, VPS4B / Fold change vs veh, VPS4B / RFU, CREB1 / Fold change vs veh, CREB1 / RFU, DNAJC13 / Fold change vs veh, DNAJC13 / RFU, GNAQ / Fold change vs veh, GNAQ / RFU, CDK5R1 / Fold change vs veh, CDK5R1 / RFU, ZRANB3 / Fold change vs veh, ZRANB3 / RFU, CUL4A / Fold change vs veh, CUL4A / RFU, CCNY / Fold change vs veh, CCNY / RFU, UFL1 / Fold change vs veh, UFL1 / RFU, COG3 / Fold change vs veh, COG3 / RFU, DIAPH2 / Fold change vs veh, DIAPH2 / RFU, SKA2 / Fold change vs veh, SKA2 / RFU, AFF3 / Fold change vs veh, AFF3 / RFU, LMF1 / Fold change vs veh, LMF1 / RFU, IPO11 / Fold change vs veh, IPO11 / RFU, DFFB / Fold change vs veh, DFFB / RFU, FOXP1 / Fold change vs veh, FOXP1 / RFU, CARD8 / Fold change vs veh, CARD8 / RFU, STRN3 / Fold change vs veh, STRN3 / RFU, ADK / Fold change vs veh, ADK / RFU, RASSF2 / Fold change vs veh, RASSF2 / RFU, WIPF1 / Fold change vs veh, WIPF1 / RFU, LARP1B / Fold change vs veh, LARP1B / RFU, RASA1 / Fold change vs veh, RASA1 / RFU, RB1 / Fold change vs veh, RB1 / RFU, PPFIA1 / Fold change vs veh, PPFIA1 / RFU, MAT2A / Fold change vs veh, MAT2A / RFU, CCT5 / Fold change vs veh, CCT5 / RFU, WDR92 / Fold change vs veh, WDR92 / RFU, CUX1 / Fold change vs veh, CUX1 / RFU, TTC7A / Fold change vs veh, TTC7A / RFU, TMEM135 / Fold change vs veh, TMEM135 / RFU, DEPTOR / Fold change vs veh, DEPTOR / RFU, CPM / Fold change vs veh, CPM / RFU, DNAJB6 / Fold change vs veh, DNAJB6 / RFU, CACNA2D3 / Fold change vs veh, CACNA2D3 / RFU, DTX4 / Fold change vs veh, DTX4 / RFU, TFCP2 / Fold change vs veh, TFCP2 / RFU, GMCL1 /// GMCL1P1 / Fold change vs veh, GMCL1 /// GMCL1P1 / RFU, AEBP2 / Fold change vs veh, AEBP2 / RFU, SNHG1 /// SNORD22 /// SNORD25 /// SNORD26 /// SNORD27 /// SNORD28 /// SNORD29 /// SNORD31 / Fold change vs veh, SNHG1 /// SNORD22 /// SNORD25 /// SNORD26 /// SNORD27 /// SNORD28 /// SNORD29 /// SNORD31 / Fold change (Aza/veh), C12orf56 (ProbeSet 11735607_a_at) / Fold change (ACY-1035/veh), C12orf56 (ProbeSet 11735607_a_at) / Fold change (Aza/veh), FGFR1OP (ProbeSet 11751329_s_at) / Fold change (ACY-1035/veh), FGFR1OP (ProbeSet 11751329_s_at) / Fold change (Aza/veh), VPS36 (ProbeSet 11739960_a_at) / Fold change (ACY-1035/veh), VPS36 (ProbeSet 11739960_a_at) / RFU SYPL1 (11715823_x_at) / Fold change /veh SYPL1 (11715823_x_at) / RFU IGFBP7 (11715501_s_at) / Fold change /veh IGFBP7 (11715501_s_at) / RFU REEP3 (11722064_at) / Fold change /veh REEP3 (11722064_at) / RFU IGLL1 (11728026_x_at) / Fold change /veh IGLL1 (11728026_x_at): dose or concentration left out as unconfirmed
Conditions: MV-4-11 cells, 48 hours

Question: How did the “RFU NR4A2 (11747474_a_at)” value turn out when `Nc1ccc(-c2cccs2)cc1NC(=O)c1ccc2c(c1)cc(C1CC1)n2CCN1CCOCC1` [ACY-1035] was run?
Answer: The value was 22.98 RFU.
